Results from article PMC5468338, “Novel Class IIa-Selective Histone Deacetylase Inhibitors Discovered Using an in Silico Virtual Screening Approach” (Scientific Reports, 2017).

Biological target: HDAC4 (Homo sapiens, UniProt P56524)
Assay: HDAC fluorometric activity assay, HDAC4
Conditions: tested at 40 μM, SAHA as reference
Source text: A fluorogenic based assay[54] was used to validate the 40 candidate compounds.

HDAC4, sequence (P56524 whole entry): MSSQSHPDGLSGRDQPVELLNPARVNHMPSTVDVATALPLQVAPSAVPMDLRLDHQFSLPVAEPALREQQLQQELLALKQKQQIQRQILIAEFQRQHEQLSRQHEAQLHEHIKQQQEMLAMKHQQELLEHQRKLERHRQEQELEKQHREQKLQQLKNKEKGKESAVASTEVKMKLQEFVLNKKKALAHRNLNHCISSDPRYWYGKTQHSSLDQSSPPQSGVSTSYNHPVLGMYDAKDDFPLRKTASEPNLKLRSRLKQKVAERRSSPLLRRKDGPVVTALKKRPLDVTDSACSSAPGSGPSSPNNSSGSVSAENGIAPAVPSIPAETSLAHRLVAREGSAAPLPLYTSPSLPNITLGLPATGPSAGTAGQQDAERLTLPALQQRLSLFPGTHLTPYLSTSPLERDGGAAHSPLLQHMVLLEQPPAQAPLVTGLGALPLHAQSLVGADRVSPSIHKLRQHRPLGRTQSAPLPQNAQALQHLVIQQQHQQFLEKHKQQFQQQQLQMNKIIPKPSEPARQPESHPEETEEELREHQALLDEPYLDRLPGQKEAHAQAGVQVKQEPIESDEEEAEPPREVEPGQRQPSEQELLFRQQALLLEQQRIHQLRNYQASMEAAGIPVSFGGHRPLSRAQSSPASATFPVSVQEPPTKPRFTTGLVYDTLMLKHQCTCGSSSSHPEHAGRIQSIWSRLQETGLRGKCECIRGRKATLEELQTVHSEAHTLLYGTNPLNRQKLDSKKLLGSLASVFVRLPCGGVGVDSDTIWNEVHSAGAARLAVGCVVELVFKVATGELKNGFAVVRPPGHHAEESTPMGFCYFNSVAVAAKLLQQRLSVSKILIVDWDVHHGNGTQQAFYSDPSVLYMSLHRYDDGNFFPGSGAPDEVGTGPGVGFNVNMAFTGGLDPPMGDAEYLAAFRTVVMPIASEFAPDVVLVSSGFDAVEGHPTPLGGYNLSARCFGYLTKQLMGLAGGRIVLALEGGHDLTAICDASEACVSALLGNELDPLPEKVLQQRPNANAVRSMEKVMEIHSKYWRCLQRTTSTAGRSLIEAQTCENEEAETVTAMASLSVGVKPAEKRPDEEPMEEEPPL

Q: With `O=C(C=Cc1ccc(O)c(O)c1)c1ccc(O)c(O)c1O` [Compound A93087] as the compound, how does the “HDAC4 inhibitory activity in initial screen compared to SAHA” value read?
A: Its value is “significantly higher inhibitory activities”.
